These results are taken from patent EP2647626A1, “1-Aza-spiro[4.5]dec-3-ene and 1,8-diaza-spiro[4.5]dec-3-ene derivatives as pesticides” (Syngenta Participations AG, priority 2012, dated 2013).

Where two headings read alike, the source gives them in different places.

Common to all, as to type: in vivo
Data set [1] has as its system Myzus persicae (green peach aphid). As to the kind of experiment: Activity against Myzus persicae, mixed population, systemic/feeding activity, curative (pea seedling roots in test solution). Particulars: 144 h, read-out: activity. An excerpt: Example B2: Activity against Myzus persicae (green peach aphid) (mixed population, systemic/feeding activity, curative)
Roots of pea seedlings, infested with an aphid population of mixed ages, were placed directly in the test solutions. 6 days after introduction, samples were checked for mortality and special effects on the plant.

Data set [2] shares this test system. Kind of data set: Activity against Myzus persicae, mixed population, feeding/residual contact activity on sprayed cabbage plants. Conditions: 144 h, read-out: activity against Myzus persicae. How it is done:
(§1) (mixed population, feeding/residual contact activity, plant damage evaluation)
(§2) Cabbage plants infested with a mixed population of Myzus persicae were treated with diluted test solutions of the compounds in a spray chamber. 6 days after treatment, samples were checked for mortality and for plant damage (phytotoxicity), visual assessment being made using a 0-100% rating scale (100% = total damage to plant; 0% = no damage to plant).

For data set [3] the test system is unchanged. Kind of data set: Activity against Myzus persicae, mixed population, feeding/residual contact activity, preventive (sunflower leaf discs). Conditions: foliar, 144 h, read-out: activity. How it is done: Example B1: Activity against Myzus persicae (green peach aphid) (mixed population, feeding/residual contact activity, preventive)
Sunflower leaf discs were placed on agar in a 24-well microtiter plate and sprayed with test solutions. After drying, the leaf discs were infested with an aphid population of mixed ages. After an incubation period of 6 days, samples were checked for mortality and special effects (e.g. phytotoxicity).

Data set [4] has as its system Tetranychus urticae (two-spotted spider mite). Kind of data set: Activity against Tetranychus urticae, mixed population, feeding/residual contact activity, preventive (bean leaf discs). Particulars: foliar, 192 h, concentration of 400ppm, egg, larval and adult mortality checked 8 days later, bean leaf discs sprayed. An excerpt:
Example B4: Activity against Tetranychus urticae (two-spotted spider mite)
(mixed population, feeding/residual contact activity, preventive)
Bean leaf discs on agar in 24-well microtiter plates were sprayed with test solutions. After drying, the leaf discs were infested with mite populations of mixed ages. 8 days later, discs were checked for egg mortality, larval mortality, and adult mortality.

Data set [5] has as its system cabbage plants. As to the kind of experiment: Plant damage evaluation (phytotoxicity) on sprayed cabbage plants, visual 0-100% rating scale. Conditions: concentration of 200ppm; 6 days after treatment; 100% = total damage to plant, 0% = no damage to plant. How it is done:
Example B5: Activity against Myzus persicae (green peach aphid)
as §1, §2

Setting [6] is: concentration of 400ppm, mortality checked 6 days after introduction, roots of pea seedlings in test solution.
Setting [7] is: concentration of 200ppm, mortality 6 days after treatment, cabbage plants, spray chamber.
Setting [8] is: concentration of 400ppm, mortality checked after 6 days, sunflower leaf discs sprayed.

For the compound `CCOC(=O)OC1=C(c2c(C)cc(C)cc2C)C(=O)N(c2ccccc2)C12CCN(OC)CC2` [P1.4], in data set [1] (setting [6]), the mortality at 400 ppm is > 80%.
Consider `CO[C@H]1CC[C@@]2(CC1)C(=O)C(c1cc(C)ccc1C)C(=O)N2c1ccccc1` (relative stereo) [P2.1, cis-3-(2,5-dimethyl-phenyl)-8-methoxy-1-phenyl-1-aza-spiro[4.5]decane-2,4-dione], for which the mortality at 200 ppm in data set [2] (setting [7]) was ≥ 80%.
The same measure, in the same setting: the same measure for `CCOC(=O)OC1=C(c2cc(C)ccc2C)C(=O)N(c2ccccc2)[C@]12CC[C@@H](OC)CC2` [P1.1, carbonic acid cis-3-(2,5-dimethyl-phenyl)-8-methoxy-2-oxo-1-phenyl-1-aza-spiro[4.5]dec-3-en-4-yl ester ethyl ester]: ≥ 80%.
As for `CON1CCC2(CC1)C(=O)C(c1c(C)cc(C)cc1C)C(=O)N2c1ccccc1` (centres unmarked) [P2.4], the mortality at 400 ppm in data set [3] (setting [8]), in data set [1] (setting [6]) and in data set [4] was > 80% in each case. The mortality at 200 ppm in data set [2] is ≥ 80%. In addition, in data set [5], the “damage to cabbage plants” value is recorded as ≤ 10%.
Take `CCOC(=O)OC1=C(c2c(C)cc(Br)cc2C)C(=O)N(c2ccccc2)C12CCN(OC)CC2` [P1.3]: the mortality at 400 ppm in data set [3] (setting [8]), in data set [1] (setting [6]) and in data set [4] was > 80% throughout. In data set [2], the mortality at 200 ppm is ≥ 80%. Besides, in data set [5], the “damage to cabbage plants” value was ≤ 10%.
Regarding `CON1CCC2(CC1)C(=O)C(c1c(C)cc(Br)cc1C)C(=O)N2c1ccccc1` (centres unmarked) [P2.3], the mortality at 400 ppm in data set [3] (setting [8]), in data set [1] (setting [6]) and in data set [4] was > 80% each time. In data set [2], the mortality at 200 ppm is ≥ 80%. Moreover, the “damage to cabbage plants” value in data set [5] is reported as ≤ 10%.
As to `CCOC(=O)OC1=C(c2c(C)cc(Cl)cc2C)C(=O)N(c2ccccc2)C12CCN(OC)CC2` [P1.5], the mortality at 400 ppm in data set [3] (setting [8]) and in data set [1] (setting [6]) was > 80% in each case. Further, the mortality at 200 ppm in data set [2] is ≥ 80%. Besides, the “damage to cabbage plants” value in data set [5] is ≤ 10%.
With `CCOC(=O)OC1=C(c2cc(C)ccc2C)C(=O)N(c2ccccc2)C12CCN(OC)CC2` [P1.2], the mortality at 400 ppm in data set [1] (setting [6]) and in data set [4] was > 80% each time. Besides, the mortality at 200 ppm in data set [2] was ≥ 80%. In data set [5], the “damage to cabbage plants” value is given as ≤ 10%.
Turning to `CON1CCC2(CC1)C(=O)C(c1c(C)cc(Cl)cc1C)C(=O)N2c1ccccc1` (centres unmarked) [P2.5, 3-(4-chloro-2,6-dimethyl-phenyl)-8-methoxy-1-phenyl-1,8-diaza-spiro[4.5]decane-2,4-dione], the mortality at 400 ppm in data set [3] and in data set [1] was > 80% each time. Further, in data set [2], the mortality at 200 ppm is ≥ 80%. Further, the “damage to cabbage plants” value in data set [5] was ≤ 10%.
For the compound `CON1CCC2(CC1)C(=O)C(c1cc(C)ccc1C)C(=O)N2c1ccccc1` (centres unmarked) [P2.2], the mortality at 200 ppm in data set [2] is ≥ 80%. In data set [5], the “damage to cabbage plants” value is listed as ≤ 10%.
